In US20250289855A1, “ANTIMICROBIAL CaNCR PEPTIDE FOLDING VARIANTS” (Donald Danforth Plant Science Center, priority 2022, published 2025):
Values joined by “and” are separate entries in the source; they are usually repeats but may differ in a detail not shown here. Equal entries are not always repeated. Bridge positions count the residues as written; N and C are the ends. Ends that are not written are not given here.

Assays:
[1] = test system: Sclerotinia sclerotiorum 555; test: In vitro antifungal activity, 24-well plate mycelial plug assay; format: cell-based; conditions: 2 dpi; for SFM MIC: Sclerotinia sclerotiorum 555
Protocol: Sclerotinia sclerotiorum (S. sclerotiorum) 555 fungal cultures were grown on potato dextrose agar (PDA) medium (Difco Laboratories Inc., Detroit, MI, USA) at room temperature.
The antifungal activity of NCR13_PFV1 against S. sclerotiorum 555 was measured in an in vitro assay using 24-wells plate assay. Mycelial plugs (1 mm in diameter) cut from the margin of two day-old actively growing colony were transferred from potato dextrose agar media to a series of wells containing 125 microliter (L) of 2×SFM medium (U.S. Pat. No. 6,916,970), with 125 μL of NCR13_PFV1 at varying concentrations of 3, 6, 12 and 24 μM. The plates were incubated at room temperature for 2 days prior to assessment. The mycelium diameter growth was measured 2 dpi using ImageJ software. NCR13 PFV1 peptide effects were calculated as a percentage from the difference between growth of the control and treated mycelium using the formula:
IG (%)=(Dc−Dt)/Dc×100; where IG is inhibition of growth, Dc is the mycelium diameter (mm) of the control and Dt is the mycelium diameter (mm) of the peptide-treated dishes.

B. cinerea = test: Semi-in planta drop-inoculation assay, gray mold on detached N. benthamiana leaves; format: in vivo, Botrytis cinerea; conditions: for inhibition of gray mold disease symptoms: 3 μM
Excerpt: FIG. 4 depicts a drop-inoculation assay showing semi-in planta antifungal activity of NCR13_PFV1 and NCR13_PFV2 in detached N. benthemiana leaves.
In semi-in-planta studies, detached leaves of N. benthamiana, were used to check the potential of both NCR13_PFV1 and NCR13_PFV2 to reduce gray mold disease symptoms caused by B. cinerea (FIG. 4).

Alternaria alternata [2] = test: Antifungal MIC, 96-well plate spectrophotometric / resazurin cell viability assay; format: cell-based; conditions: Synthetic Fungal Medium
Protocol: (§1) The fungal strain of Botrytis cinerea T-4 was cultured in 20% V8 growth medium. Alternaria alternata was grown on potato dextrose agar. Fungal spores were harvested by flooding the fungal growth plates with sterile water. The spore suspension was filtered through two layers of Miracloth, centrifuged at 13,600 rpm for 1 min, washed, and re-suspended in low-salt Synthetic Fungal Medium (SFM) (U.S. Pat. No. 6,916,970). The spore suspension was adjusted to equivalent spore density using a hemocytometer.
Cercospora sojina and Alternaria alternata conidia were harvested from a fully grown culture plate by gently dislodging the conidia with an L-spreader in the presence of 5 ml sterile water. […]
Antifungal activity of NCR13_PFV1 and NCR13_PFV2 was assessed at different concentrations using a 2-fold dilution series of each peptide. Antifungal activity of each peptide was determined spectrophotometrically using the 96-well plate assay (Sagaram et al., (2011) PLoS One. doi: 10.1371/journal.pone.0018550; Sagaram et al., (2013). PLoS One. 2013 Dec. 4; 8(12):e82485. doi: 10.1371/journal.pone.0082485). […] The quantitative fungal growth inhibition was determined by measuring the absorbance at 595 nm using a microplate reader (Tecan Infinite M200 ProTecan Systems Inc., San Jose, CA) after 48 h. […]

Botrytis cinerea [3] = test: as above; format: cell-based; conditions: for SFM + 2 mM CaCl2 (antifungal activity/MIC): SFM supplemented with 2 mM CaCl2; for SM + 100 mM NaCl (antifungal activity/MIC): medium supplemented with 100 mM NaCl
Protocol: as §1
Antifungal activity of NCR13_PFV1 and NCR13_PFV2 was assessed at different concentrations using a 2-fold dilution series of each peptide. Antifungal activity of each peptide was determined spectrophotometrically using the 96-well plate assay (Sagaram et al., (2011) PLoS One. doi: 10.1371/journal.pone.0018550; Sagaram et al., (2013). PLoS One. 2013 Dec. 4; 8(12):e82485. doi: 10.1371/journal.pone.0082485). Forty-five microliters of each peptide at different concentrations was added to each well of the microtiter plate containing 45 μL of ˜10^5 spores/ml spore suspension. The quantitative fungal growth inhibition was determined by measuring the absorbance at 595 nm using a microplate reader (Tecan Infinite M200 ProTecan Systems Inc., San Jose, CA) after 48 h. The fungal cell viability was determined by the resazurin cell viability assay (Li et al., 2019, MPMI 32, 1649-1664; Velivelli et al., 2020, doi.org/10.1073/pnas.2003526117). After incubation of the pathogen/peptide mixture for 48 h, […] 0.1% resazurin solution was added to each well. After incubation of the mixture overnight, a change in the color of the resazurin dye from blue to pink or colorless indicated the presence of live fungal cells. The MIC for each peptide was the lowest concentration of each peptide at which no change in blue color occurred. Using this protocol, the MIC value of NCR13_PFV1 and NCR13_PFV2 was also determined in presence of 100 mM NaCl and 2 mM CaCl2).
The MIC of NCR13_PFV1 and NCR13_PFV2 against B. cinerea was determined (Table 3). MIC assays were carried out in 2×SFM. […] We therefore determined antifungal activity of NCR13_PFV1 and NCR13_PFV2 in SFM supplemented with 100 mM NaCl or 2 mM CaCl2) (Table 3).

S. sclerotiorum 555 [4] = test: Semi-in planta antifungal assay on detached soybean leaves; format: in vivo, Sclerotinia sclerotiorum; conditions: 2 dpi
Protocol: Representative pictures (under white light and with CropReporter based on the value of potential photosynthetic efficiency Fv/Fm) taken 48 h post-infection showing the antifungal activity of NCR13_PFV1.
(§2) For the semi-in planta antifungal assays, a 1 mm plug was taken from the leading edge of freshly cultured 2-day old fungal colony from PDA media and placed on approximately 3-4 weeks of age detached soybean leaves and pods (6 weeks of age). Then, 40 μL solution of NCR13_PFV1 at various concentrations or water was applied immediately on the plug and were allowed to incubate under high humidity for 2-3 days prior to assessment. The severity of disease lesions on each leaf was assessed using the CropReporter system as described in Li et al. Mol Plant Microbe Interact. 2019; 32:1649-1664. doi: 10.1094/MPMI-08-19-0224-R. Epub 2019 Oct. 28. PMID: 31425003. In addition, high-resolution fluorescence images were taken using CropReporter (PhenoVation, Wageningen, Netherlands).

Cercospora sojina [5] = test: Microscopic observation of antifungal activity (light microscope, 20x); format: cell-based
Excerpt: (§3) The presence of germinating conidia/mycelial fragments was observed under a light microscope at 20× magnification. […] (FIG. 3A).

Alternaria alternata [6] = test: as above; format: cell-based; conditions: A. alternata; peptide at 3 μM
Excerpt: as §3

Botrytis cinerea [7] = test: Tomato fruit infection assay, drop inoculation; format: in vivo; conditions: for control of B. cinerea growth in tomato fruits: 0.75 μM peptide, 5 dpi; for visible fungal growth on tomato fruits: B. cinerea, 0.75 μM peptide applied 12 hpi, 3 dpi
Protocol: Antifungal activity assays were performed on commercially available tomato fruits. A total of 36 tomato fruits (12 fruits per treatment) were washed with 0.01% bleach and rinsed three times with sterile distilled water. Carborundum Powder (Fisher Chemical, USA) was gently rubbed on the fruit surface to create microinjuries. The fruits were inoculated with 20 μl B. cinerea conidia (1×10^5 conidia ml-1) via drop inoculation. Conidia of B. cinerea were prepared as described above. Fruits were incubated in a Ziploc weather shield box containing moist paper towels to maintain high humidity after drop inoculation. 20 μl of peptide solution (0.75 μM of NCR13_PFV1 or NCR13_PFV2) was applied to the drop inoculated conidial suspension at 12 hours post-inoculation (hpi) and incubated for 5 days.

S. sclerotiorum 555 [8] = test: Semi-in planta antifungal assay on detached soybean pods; format: in vivo, Sclerotinia sclerotiorum; conditions: 3 dpi
Protocol: Representative pictures taken 72 h post-infection showing the antifungal activity of NCR13_PFV1.
as §2
Detached soybean pods from 6-week-old plants were infected with 1 mm plug of S. sclerotiorum 555 followed by the application of a drop of NCR13_PFV1 on the plug. […] We observed that NCR13_PFV1 confers fungicidal activity with 100% protection against S. sclerotiorum 555 at 3 dpi (FIG. 6).

Cercospora sojina [9] = test: Antifungal MIC, 96-well plate spectrophotometric / resazurin cell viability assay; format: cell-based; conditions: Synthetic Fungal Medium
Protocol: Cercospora sojina and Alternaria alternata conidia were harvested from a fully grown culture plate by gently dislodging the conidia with an L-spreader in the presence of 5 ml sterile water. To remove mycelial fragments, the spore suspension was filtered through three layers of miracloth and washed twice with sterile water at 13,000 rpm for 2 minutes. The spore concentration was adjusted to 1×10^5 spores/ml using a hemocytometer.
Antifungal activity of NCR13_PFV1 and NCR13_PFV2 was assessed at different concentrations using a 2-fold dilution series of each peptide. Antifungal activity of each peptide was determined spectrophotometrically using the 96-well plate assay (Sagaram et al., (2011) PLoS One. doi: 10.1371/journal.pone.0018550; Sagaram et al., (2013). PLoS One. 2013 Dec. 4; 8(12):e82485. doi: 10.1371/journal.pone.0082485). Forty-five microliters of each peptide at different concentrations was added to each well of the microtiter plate containing 45 μL of ˜10^5 spores/ml spore suspension. The quantitative fungal growth inhibition was determined by measuring the absorbance at 595 nm using a microplate reader (Tecan Infinite M200 ProTecan Systems Inc., San Jose, CA) after 48 h. The fungal cell viability was determined by the resazurin cell viability assay (Li et al., 2019, MPMI 32, 1649-1664; Velivelli et al., 2020, doi.org/10.1073/pnas.2003526117). […]

Substance	S. sclerotiorum 555 mycelial growth in vitro ([1]; 3, 6, 12 and 24 μM)	SFM MIC [1]	activity against gray mold disease relative to NCR13_PFV2 (B. cinerea)	inhibition of gray mold disease symptoms (B. cinerea)	SFM MIC (Alternaria alternata [2])	antifungal activity of NCR13_PFV1 relative to NCR13_PFV2 (from MIC) (Botrytis cinerea [3])	SFM + 2 mM CaCl2 (antifungal activity/MIC) (Botrytis cinerea [3])	SM + 100 mM NaCl (antifungal activity/MIC) (Botrytis cinerea [3])	lesion size (S. sclerotiorum 555 [4])	concentration at which C. sojina growth was inhibited (microscopy) (Cercospora sojina [5])	conidial germination / mycelial growth under the microscope (Alternaria alternata [6])	control of B. cinerea growth in tomato fruits (Botrytis cinerea [7])	control of B. cinerea growth in tomato fruits (Botrytis cinerea [7]; listed as NCR13 PFV1)	visible fungal growth on tomato fruits (Botrytis cinerea [7])	protection against S. sclerotiorum 555 (S. sclerotiorum 555 [8])	lesion or decay development (S. sclerotiorum 555 [8]; compared to water control)	SFM MIC (Botrytis cinerea [3]; Synthetic Fungal Medium, 48 h, resazurin)	fold higher inhibitory concentration versus the other folding variant (Cercospora sojina [5]; C. sojina)	SFM MIC (Cercospora sojina [9])
NCR13_PFV1: NCR13-Ala peptide (SEQ ID NO: 2) expressed in Pichia pastoris, HPLC Peak1 folding variant (ATKPCQSDKDCKKFACRKPKVPKCINGFCKCVR; disulfide 11-29, 16-31, 5-24)	progressively reduced in size with increasing concentrations	6 µM and 6.0 µM	two-fold higher activity	completely inhibitory	0.75 µM	fourfold or greater	Inactive	Inactive	significantly decreased lesion sizes	0.18 µM	complete inhibition of conidial germination	effective in controlling B. cinerea fungal growth	effective	no visible fungal growth	100%	no lesion or decay development	–	–	–
NCR13_PFV2: NCR13-Ala peptide (SEQ ID NO: 2) expressed in Pichia pastoris, HPLC Peak2 folding variant (ATKPCQSDKDCKKFACRKPKVPKCINGFCKCVR; not fully specified; cysteine pairing not given here)	–	24.0 µM	–	only partially inhibitory	3 µM and 3.0 µM	–	Inactive	Inactive	–	3 µM	significant mycelial growth	–	–	visible fungal growth	–	–	1.5 µM	~17	1.5 µM
